The values that follow come from patent publication US20180221241A1, “ENHANCEMENT OF VASODILATORY FUNCTION AND LOWERING OF EFFECTIVE SYSTEMIC VASCULAR RESISTANCE” (THE GOVERNORS OF THE UNIVERSITY OF ALBERTA, priority 2015, published 2018).

The assay has as its system second order mesenteric resistance arteries. Put plainly: Pressure myograph system, vessel lumen diameter under controlled barometric pressure. Set-up: species or system mice. The conditions noted are these: for maximal increase in lumen diameter, cumulative response curve to methylcholine: doses 1 nM to 1 μM, barometric pressure PB674; for constriction or relaxation of vessel to drug administered in the bath: vessels immersed in Ca2+-free solution, n=7, p>0.05. On the procedure: Four-month-old male C57 mice were given access to standard chow and water ad-libitum and were housed on a 12 h-12 h light-dark cycle. Mice were euthanized through sodium pentobarbital administered interperitonially, and their mesenteries were removed and placed in freshly prepared cold physiological salt solution (10 HEPES, 5.5 glucose, 1.56 CaCl2, 4.7 KCl, 142 NaCl, 1.17 MgSO4, 1.18 KH2PO4, pH 7.5.).
Two second order resistance arteries were dissected of surrounding connective tissue and mounted within a pressure myograph system (Living Systems Instrumentation; Burlington, Vt.). Vessels were tied onto glass cannulas with microscopic suture thread segments. Each vessel was immersed in a physiological salt solution bath, maintained at a temperature of 37° C. with the aid of a built-in temperature feedback mechanism connected to a miniature heating system. Intravascular pressure and flow were measured and alterable using pressure and flow control systems. A peristaltic pump was used to maintain specific rates of flow across the lumens vessels mounted in the pressure myograph system. To mimic physiological conditions as best as possible, the vessels were oriented as such that flow would be applied in the same direction as in vivo blood flow. The vessels were maintained at a perfusion pressure of 60 mmHg, the approximated in vivo mesentery arterial pressure of mice.
Vessels were exposed to phenylephrine and methylcholine before the start of every protocol to ensure the vessel was intact and capable of responding to pressure and flow stimuli. In some protocols, one bath of the pressure myograph was infused with inhibitors of nitric oxide synthase and prostacyclins to inhibit the action of these two major endogenous endothelial vasodilators. This was performed in order to assess the effect of barometric pressure on mesenteric arteries isolated from the vasoactive influences of nitric oxide and prostacyclins.
The entire myograph system was enclosed within a barometric pressure controlled chamber, capable of being sealed and pressure-controlled when necessary (FIG. 11). A control pressure was established on the pressure sensor in relation to the atmospheric pressure denoted by the meteorological service of Canada (Edmonton station). Pressure conditions PB714 and PB674 were assigned as 40 mmHg and 80 mmHg below atmospheric pressure, respectively. The conditions were maintained through a pressure apparatus.
A pressure transducer and flow regulator coupled with a peristaltic pump mechanisms was set up so as to be manipulated from outside upon sealing the barometric pressure chamber around the myograph system. […]
Vessel diameters and wall thicknesses were recorded with the help of a microscope-coupled micrometer. […]

On to `CC(=O)OC(C)C[N+](C)(C)C` (stereo not shown), for which the “constriction or relaxation of vessel to drug administered in the bath” value is “no constriction to phenylephrine or relaxation”. The “maximal increase in lumen diameter, cumulative response curve to methylcholine” value (with L-NAME and meclofenamate (FIG. 4B)) is 133%. Besides, the “maximal increase in lumen diameter, cumulative response curve to methylcholine” value (without inhibitors (FIG. 4A)) was found to be 122%.

Regarding `CNC[C@H](O)c1cccc(O)c1` [phenylephrine], the “constriction or relaxation of vessel to drug administered in the bath” value is given as “no constriction”.
